Test results published in patent US20240270821A1, “GIP/GLP1/GCG TRI-RECEPTOR AGONISTS AND USES THEREOF” (priority 2023, published 2024).
Marks after values point to notes of the source that are not given here. Starred links: 1 amine or outer side, 2 acyl side, 3 side chain; linkers in the order of their positions; H or OH if unused. Non-standard residues stand in square brackets, D forms with d. Groups on a side chain read outwards from the residue. No end group written: not given here. *: point of attachment. C20 diacid = O=C(O)CCCCCCCCCCCCCCCCCCC(=O)*; C18 diacid = O=C(O)CCCCCCCCCCCCCCCCC(=O)*; αMePhe(2-F) = C[C@](N)(Cc1ccccc1F)C(=O)O; γGlu = O=C(O)[C@H](CCC(=O)[*:2])N[*:1]; NMeY = CN[C@@H](Cc1ccc(O)cc1)C(=O)O; αMeF = C[C@](N)(Cc1ccccc1)C(=O)O; αMeL = CC(C)C[C@](C)(N)C(=O)O; Orn = NCCC[C@H](N)C(=O)O; Dap = NC[C@H](N)C(=O)O; AEEA = NCCOCCOCC(=O)O; Aib = CC(C)(N)C(=O)O

Experiments:
hGIPR [1] = biological target: T1, hGIPR (Homo sapiens, UniProt P48546); assay: Functional cAMP activity in the presence of 1% HSA; format: cell-based; settings: read-out: cAMP Rel EC50, hGIPR
T1 sequence (P48546 22-466): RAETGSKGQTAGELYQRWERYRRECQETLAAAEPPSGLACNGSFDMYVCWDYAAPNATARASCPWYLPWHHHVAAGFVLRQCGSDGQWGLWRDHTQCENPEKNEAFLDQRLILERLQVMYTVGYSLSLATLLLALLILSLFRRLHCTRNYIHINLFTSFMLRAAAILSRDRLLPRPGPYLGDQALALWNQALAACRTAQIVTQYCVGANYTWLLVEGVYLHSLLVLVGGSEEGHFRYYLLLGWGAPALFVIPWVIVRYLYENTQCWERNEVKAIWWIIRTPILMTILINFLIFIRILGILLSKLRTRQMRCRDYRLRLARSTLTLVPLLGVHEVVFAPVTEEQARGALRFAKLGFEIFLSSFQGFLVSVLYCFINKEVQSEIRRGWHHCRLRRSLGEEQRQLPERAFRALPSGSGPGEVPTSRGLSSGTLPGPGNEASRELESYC

hGLP-1R [2] = biological target: T2, hGLP-1R (Homo sapiens, UniProt P43220); assay: Functional cAMP activity in the presence of 1% HSA; format: cell-based; settings: read-out: cAMP Rel EC50, hGLP-1R
Target sequence in this assay (P43220 24-463): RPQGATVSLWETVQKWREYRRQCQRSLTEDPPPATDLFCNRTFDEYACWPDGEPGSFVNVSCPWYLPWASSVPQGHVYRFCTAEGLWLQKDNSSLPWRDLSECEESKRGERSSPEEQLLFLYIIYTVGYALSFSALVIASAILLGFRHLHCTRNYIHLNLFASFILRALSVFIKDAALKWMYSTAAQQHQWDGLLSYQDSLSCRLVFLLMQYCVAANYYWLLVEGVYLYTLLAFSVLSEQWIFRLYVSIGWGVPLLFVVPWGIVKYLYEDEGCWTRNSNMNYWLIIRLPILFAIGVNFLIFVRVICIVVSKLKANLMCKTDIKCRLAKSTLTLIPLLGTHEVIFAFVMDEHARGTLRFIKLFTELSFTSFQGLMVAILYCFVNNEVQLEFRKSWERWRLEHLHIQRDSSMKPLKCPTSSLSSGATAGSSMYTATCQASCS

human GcgR = human GcgR (Homo sapiens, UniProt P47871); assay: Functional cAMP activity in the presence of 1% HSA; format: cell-based; settings: read-out: cAMP Rel EC50, hGcgR
hGIPR [3] = biological target: T1, hGIPR; assay: Functional cAMP activation in the presence of 0.1% casein (no HSA); format: cell-based; settings: in the presence of 0.1% casein (no HSA); geometric mean; read-out: Relative cAMP EC50, hGIPR;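 as to Relative cAMP EC50, hGIPR: intracellular cAMP rise after 30 min at 37 °C read by HTRF against a standard curve, scaled between buffer alone (0%) and top control ligand concentration (100%), four-parameter fit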;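 as to Relative cAMP EC50, hGLP-1R: intracellular cAMP rise after 30 min at 37 °C read by HTRF, normalized between buffer only (0%) and maximal control ligand (100%), four-parameter variable-slope fit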;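 as to Relative cAMP EC50, hGcgR: intracellular cAMP rise after 30 min at 37 °C, read by HTRF against a cAMP standard curve, scaled from buffer only (0%) to maximal control ligand response (100%)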
hGLP-1R [4] = biological target: T2, hGLP-1R; assay: as above; format: cell-based; settings: in the presence of 0.1% casein (no HSA); geometric mean; read-out: Relative cAMP EC50, hGLP-1R
Target sequence in this assay (P43220 24-463): as above

hGcgR = hGcgR (Homo sapiens, UniProt P47871); assay: as above; format: cell-based; settings: in the presence of 0.1% casein (no HSA); geometric mean; read-out: Relative cAMP EC50, hGcgR;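 also: intracellular cAMP rise after 30 min at 37 °C, read by HTRF against a cAMP standard curve, scaled from buffer only (0%) to maximal control ligand response (100%)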
[5] = Body weight in diet-induced obese C57BL/6 mice; format: in vivo; settings: percent of starting weight, DIO mice, mean ± SEM n=5
Method: To investigate the effect of the polypeptides as described herein on weight loss, exemplary polypeptides are dosed to C57BL/6 diet-induced obese (DIO) mice. Specifically, DIO male C57BL/6 mice (Taconic, Germantown, NY) maintained on a calorie-rich diet are used in the following studies. Mice are individually housed in a temperature-controlled (24° C.) facility with 12-hour light/dark cycle (lights on 22:00) and free access to food (TD95217) and water. After a minimum of 2 weeks acclimation to the facility, the mice are randomized according to their body weight, so each experimental group of animals would have similar starting body weight. The body weights range from 41 to 50 g. All groups contain 5 mice. […] Treatments are administered by subcutaneous (SC) injection (10 mL/kg) to ad libitum fed DIO mice 30 to 90 minutes prior to the onset of the dark cycle either once daily (QD) or once every 3 days (Q3D) for 9-16 days. Body weight and food intake are measured daily throughout the study. Body weight is presented as percent of the starting weight. […] Data are presented as mean±SEM of 5 animals per group in Table 7 below. Statistical analysis is performed using repeated measures ANOVA, followed by Dunnett's method comparison test.

hGLP-1R [6] = biological target: T2, hGLP-1R; assay: GLP-1R CHO cell β-arrestin recruitment assay; format: cell-based; design: host or cells: CHO-K1 (PathHunter, assay-ready frozen cells); settings: for EC50: CHO-K1 PathHunter, β-arrestin-2, 0.1% casein, read-out: hGLP1R β-arrestin Rel EC50; for % Stimulation Max: normalized to GLP-1(7-36) as maximum control;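 as to all read-outs here: luminescence read after 90 min peptide exposure at 37 °C and a further 60 min with detection reagent at room temperature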
Target sequence in this assay (P43220 24-463): as above
Target sequence in this assay (P32121 whole entry partner): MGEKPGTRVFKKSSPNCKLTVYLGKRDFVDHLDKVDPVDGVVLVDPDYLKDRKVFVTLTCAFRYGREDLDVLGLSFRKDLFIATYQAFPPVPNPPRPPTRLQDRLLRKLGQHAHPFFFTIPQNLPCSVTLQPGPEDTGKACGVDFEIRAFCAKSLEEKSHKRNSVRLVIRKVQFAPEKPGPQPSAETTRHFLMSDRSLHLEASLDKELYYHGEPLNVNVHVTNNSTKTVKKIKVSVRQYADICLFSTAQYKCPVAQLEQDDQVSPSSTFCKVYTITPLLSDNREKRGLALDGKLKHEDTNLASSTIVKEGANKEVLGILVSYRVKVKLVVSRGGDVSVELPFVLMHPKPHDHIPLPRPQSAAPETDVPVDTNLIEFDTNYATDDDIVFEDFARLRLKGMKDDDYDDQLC

human GLP1-R = human GLP1-R (Homo sapiens, UniProt P43220); assay: GLP1-R internalization assay in HEK293 cells; format: cell-based; settings: for EC50: HEK293 cells expressing SNAP-GLP-1R, read-out: GLP1R Internalization EC50; for Internalization % TOP: normalized to maximum concentration of GLP-1 (100%)
[7] = system: Intestinal organoid from Göttingen minipig jejunum tissue, 2D monolayer; assay: Cell based in vitro permeability (Papp) assay; format: in vitro ADME
Procedure, shortened: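 Papp calculated from LC/MS peptide levels in apical and basal compartments. Basal sampling at 20 min with C10 present, across monolayers grown from dissociated minipig jejunal organoids in transwells.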

Sequence of human GLP1-R (P43220 24-463): as the sequence (P43220 24-463) above
Sequence of human GcgR (P47871 26-477): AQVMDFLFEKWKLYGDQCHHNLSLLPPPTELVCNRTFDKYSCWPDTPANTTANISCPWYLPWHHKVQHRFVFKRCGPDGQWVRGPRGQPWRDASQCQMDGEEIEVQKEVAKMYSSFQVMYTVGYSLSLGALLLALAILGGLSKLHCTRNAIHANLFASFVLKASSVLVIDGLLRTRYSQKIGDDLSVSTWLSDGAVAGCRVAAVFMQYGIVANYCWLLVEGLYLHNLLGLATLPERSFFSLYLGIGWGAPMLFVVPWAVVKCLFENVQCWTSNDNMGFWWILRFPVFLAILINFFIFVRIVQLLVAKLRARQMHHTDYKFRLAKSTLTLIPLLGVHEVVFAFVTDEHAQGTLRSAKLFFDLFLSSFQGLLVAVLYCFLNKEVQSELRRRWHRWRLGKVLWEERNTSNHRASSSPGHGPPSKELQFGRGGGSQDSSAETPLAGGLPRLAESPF
Sequence of hGcgR (P47871 26-477): as above

Row | Compound | EC50 (hGIPR [1]) [nM] | EC50 (hGLP-1R [2]) [nM] | EC50 (human GcgR) [nM] | EC50 (hGIPR [3]) [nM] | EC50 (hGLP-1R [4]) [nM] | EC50 (hGcgR) [nM] | Body weight (%) ([5]; 10 nmol/kg SC QD, 16 days) | EC50 (hGLP-1R [6]) [nM] | % Stimulation Max (hGLP-1R [6]) [%] | Body weight (%) ([5]; 10 nmol/kg SC Q3D, 14 days) | EC50 (human GLP1-R) [nM] | Internalization % TOP (human GLP1-R) [%] | Relative Papp (Compared to internal standard) [7]
1 | H-H[Aib]QGT[αMePhe(2-F)]TSDYSILLDKK([AEEA-γGlu-C20 diacid])AA[Aib]AFIEYLIETGPSSGEPPPSEG-NH2 [Example 290] | 53.4 | 90 | 878 | 0.43 | 0.34 | 2.68 | 65.40 ± 3.45 | 3.94 | 83.5 | – | – | – | –
2 | H-Y[Aib]QGTFTSDFS[Dap][αMeL]LDKK([AEEA-γGlu-C18 diacid])AQ[Aib]AFIEYLLE[Aib]GPSSGAPPPSGS-NH2 [Example 134] | 38.3 | 549 | 1200 | 0.152 | 3.36 | 7.28 | – | – | – | 93.28 +/− 1.38% | 67.9 | 22.3 | 0.07
3 | H-Y[Aib]QGTFTSDFS[Orn][αMeL]LDKK([AEEA-γGlu-C18 diacid])AQ[Aib]AFIEYLLAGGPSSGAPPPEGS-NH2 [Example 93] | 27.9 | 397 | 1390 | 0.162 | 2.63 | 7.16 | – | – | – | 86.64 +/− 1.94**** % | 30.4 | 50.8 | –
4 | H-Y[Aib]QGTFTSDFS[Orn][αMeL]LDKK([AEEA-AEEA-γGlu-C18 diacid])AQ[Aib]AFIEYLLE[Aib]GPSSGAPPPSGS-NH2 [Example 75] | 16.8 | 878 | 1040 | 0.0578 | 4.4 | 4.51 | – | – | – | 96.28 +/− 1.51% | 61.8 | 51.9 | –
5 | H-[NMeY][Aib]QGT[αMeF]TSDYSSLLDKIAAK([AEEA-AEEA-γGlu-C20 diacid])AFIEYLLEGGPSSGEPPPSEG-NH2 [Example 297] | 325 | 1130 | 2320 | 0.626 | 2.96 | 3.26 | 48.42 ± 2.86 | 60.2 | 33.5 | – | – | – | –
6 | CC[C@H](C)[C@H](NC(=O)[C@H](Cc1ccccc1)NC(=O)[C@H](C)NC(=O)C(C)(C)NC(=O)[C@H](CCC(N)=O)NC(=O)[C@H](C)NC(=O)[C@H](CCCCNC(=O)COCCOCCNC(=O)CC[C@H](NC(=O)CCCCCCCCCCCCCCCCCCC(=O)O)C(=O)O)NC(=O)[C@H](CCCCN)NC(=O)[C@H](CC(=O)O)NC(=O)[C@H](CC(C)C)NC(=O)[C@](C)(CC(C)C)NC(=O)[C@H](CCCN)NC(=O)[C@H](CO)NC(=O)[C@H](Cc1ccccc1)NC(=O)[C@H](CC(=O)O)NC(=O)[C@H](CO)NC(=O)[C@@H](NC(=O)[C@H](Cc1ccccc1)NC(=O)[C@@H](NC(=O)CNC(=O)[C@H](CCC(N)=O)NC(=O)C(C)(C)NC(=O)[C@@H](N)Cc1ccc(O)cc1)[C@@H](C)O)[C@@H](C)O)C(=O)N[C@@H](CCC(=O)O)C(=O)N[C@@H](Cc1ccc(O)cc1)C(=O)N[C@@H](CC(C)C)C(=O)N[C@@H](CC(C)C)C(=O)N[C@@H](C)C(=O)NCC(=O)NCC(=O)N1CCC[C@H]1C(=O)N[C@@H](CO)C(=O)N[C@@H](CO)C(=O)NCC(=O)N[C@@H](CCC(=O)O)C(=O)N1CCC[C@H]1C(=O)N1CCC[C@H]1C(=O)N1CCC[C@H]1C(=O)N[C@@H](CO)C(=O)N[C@@H](CCC(=O)O)C(=O)NCC(N)=O [Example 29] | 70.1 | 493 | 1350 | 0.35 | 3.56 | 11.1 | – | – | – | 75.96 +/− 3.77**** % | 129 | 57 | –
7 | H-Y[Aib]QGTFTSDFS[Orn][αMeL]LDKK([AEEA-γGlu-C18 diacid])AQ[Aib]AFIEWLLEGGHSSGAPPPEGS-NH2 [Example 126] | 40.3 | 838 | 1120 | 0.264 | 3.97 | 6.81 | – | – | – | 95.68 +/− 0.90% | 63.2 | 38.8 | –
8 | H-Y[Aib]QGTFTSDFS[Orn][αMeL]LDKK([AEEA-γGlu-C18 diacid])AQ[Aib]AFIEYLLAGGPSSGEPPPSGS-NH2 [Example 94] | 21.4 | 480 | 1220 | 0.154 | 2.63 | 8.16 | – | – | – | 84.92 +/− 1.79**** % | 37.1 | 47.2 | 0.02
9 | H-Y[Aib]QGTFTSDFS[Orn][αMeL]LDKK([AEEA-γGlu-C18 diacid])AQ[Aib]AFIEWLLEGGPSSGAPPPEGS-NH2 [Example 121] | 24.6 | 348 | 442 | 0.172 | 2.38 | 4.89 | – | – | – | 85.58 +/− 3.20**** % | 38.1 | 46.3 | 0.08
10 | Y[Aib]QGTFTSDFS[Orn][αMeL]LDKK([AEEA-γGlu-C18 diacid])AQ[Aib]AFIEYLLEGGPSSGAPPPGGS-NH2 [Example 62] | 31.2 | 299 | 396 | 0.146 | 2.72 | 3.96 | – | – | – | 88.05 +/− 1.08*** % | 40.3 | 44.9 | 0.03
11 | Y[Aib]QGTFTSDFS[Orn][αMeL]LDKK([AEEA-γGlu-C18 diacid])AQ[Aib]AFIEYLLAGGPSSGEPPPEGE-NH2 [Example 98] | 33.8 | 660 | 867 | 0.179 | 4.35 | 6.91 | – | – | – | 90.78 +/− 1.26* % | 56 | 49.3 | –
